Assays:
Type in all cases: cell-based
[1] = molecular target: T1, hFP (Homo sapiens, UniProt P43088); assay: FLIPR calcium signal, FP; settings: HEK-293(EBNA)
T1 construct: expressed in transfected cells
Experimental: (§1) HEK-293(EBNA) cells, stably expressing one type or subtype of recombinant human prostaglandin receptors (prostaglandin receptors expressed: hDP/Gqs5; hEP1; hEP2/Gqs5; hEP3A/Gqi5; hEP4/Gqs5; hFP; hIP; hTP), were cultured in 100 mm culture dishes in high-glucose DMEM medium containing 10% fetal bovine serum, 2 mM 1-glutamine, 250 μg/ml geneticin (G418) and 200 μg/ml hygromycin B as selection markers, and 100 units/ml penicillin G, 100 μg/ml streptomycin and 0.25 μg/ml amphotericin B.
(§2) Cells were seeded at a density of 5×10^4 cells per well in Biocoat® Poly-D-lysine-coated black-wall, clear-bottom 96-well plates (Becton-Dickinson) and allowed to attach overnight in an incubator at 37° C. Cells were then washed two times with HBSS-HEPES buffer (Hanks Balanced Salt Solution without bicarbonate and phenol red, 20 mM HEPES, pH 7.4) using a Denley Cellwash plate washer (Labsystems). After 45 minutes of dye-loading in the dark, using the calcium-sensitive dye Fluo-4 AM at a final concentration of 2 μM, plates were washed four times with HBSS-HEPES buffer to remove excess dye leaving 100 μl in each well. Plates were re-equilibrated to 37° C. for a few minutes.
(§3) Cells were excited with an Argon laser at 488 nm, and emission was measured through a 510-570 nm bandwidth emission filter (FLIPR™, Molecular Devices, Sunnyvale, Calif.). Drug solution was added in a 50 μl volume to each well to give the desired final concentration. The peak increase in fluorescence intensity was recorded for each well. On each plate, four wells each served as negative (HBSS-HEPES buffer) and positive controls (standard agonists: BW245C (hDP); PGE2 (HEP1; hEP2/Gqs5; hEP3A/Gqi5; hEP4/Gqs5); PGF2α (hFP); carbacyclin (hIP); U-46619 (hTP), depending on receptor). The peak fluorescence change in each drug-containing well was then expressed relative to the controls.
(§4) Compounds were tested in a high-throughput (HTS) or concentration-response (CoRe) format. In the HTS format, forty-four compounds per plate were examined in duplicates at a concentration of 10^−5 M. To generate concentration-response curves, four compounds per plate were tested in duplicates in a concentration range between 10^−5 and 10^−11 M. The duplicate values were averaged. In either, HTS or CoRe format each compound was tested on at least 3 separate plates using cells from different passages to give an n≧3.

[2] = molecular target: T2, hIP (Homo sapiens, UniProt P43119); assay: FLIPR calcium signal, IP; settings: HEK-293(EBNA)
T2 construct: expressed in transfected cells
T2 sequence (P43119 whole entry): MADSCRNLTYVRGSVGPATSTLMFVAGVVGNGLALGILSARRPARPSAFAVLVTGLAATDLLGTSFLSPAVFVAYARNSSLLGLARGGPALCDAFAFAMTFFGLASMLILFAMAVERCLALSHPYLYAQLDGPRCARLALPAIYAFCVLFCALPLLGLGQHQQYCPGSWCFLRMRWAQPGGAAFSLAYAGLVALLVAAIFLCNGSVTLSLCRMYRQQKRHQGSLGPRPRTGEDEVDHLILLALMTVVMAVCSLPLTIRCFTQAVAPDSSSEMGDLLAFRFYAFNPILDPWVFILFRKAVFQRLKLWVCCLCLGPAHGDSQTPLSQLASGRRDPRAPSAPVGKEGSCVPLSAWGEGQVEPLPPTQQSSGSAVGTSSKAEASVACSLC
Experimental: as §1, §2, §3, §4

[3] = molecular target: EP2 (Homo sapiens, UniProt P43116); assay: cAMP assay, HEK-EBNA cells expressing EP2; design: expressed in transfected cells; host or cells: HEK-EBNA; settings: value in parentheses in EP2 column, read-out: EP2 EC50 (nM), measurement of cAMP (data in parentheses)
EP2, sequence (P43116 whole entry): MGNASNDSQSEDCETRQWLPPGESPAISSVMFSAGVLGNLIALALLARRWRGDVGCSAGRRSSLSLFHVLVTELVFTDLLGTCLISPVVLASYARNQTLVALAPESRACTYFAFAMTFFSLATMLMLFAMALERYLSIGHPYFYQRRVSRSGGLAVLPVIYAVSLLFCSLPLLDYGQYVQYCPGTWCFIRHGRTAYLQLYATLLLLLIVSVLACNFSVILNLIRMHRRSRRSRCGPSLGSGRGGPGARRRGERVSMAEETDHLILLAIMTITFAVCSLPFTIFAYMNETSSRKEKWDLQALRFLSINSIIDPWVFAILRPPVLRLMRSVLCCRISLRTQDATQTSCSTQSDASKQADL
Experimental: A 384-well drug plate was prepared to contain 6 test compounds, PGE2 and cAMP in 16 serial dilutions in triplicate, using a Biomek station. HEK-EBNA cells expressing a target PG receptor subtype (EP2 or EP4) were suspended in a stimulation buffer (HBSS, 0.1% BSA, 0.5 mM IBMX and 5 mM HEPES, pH 7.4) in a density of 10^4 cells/5 μl. The reaction was initiated by mixing 5 μL drug dilutions with 5 μl of HEK-EBNA cells in a well, carried out for 30 min at room temperature, and followed by the addition of 5 μl anti-cAMP acceptor beads in the control buffer with Tween-20 (25 mM NaCl, 0.03% Tween-20, 5 mM HEPES, pH7.4). After 30 min in the dark at room temperature, the mixtures were incubated with 15 μl biotinylated-cAMP/strepavidin donor beads in Lysis/Detection buffer (0.1% BSA, 0.3% Tween-20 and 5 mM HEPES, pH7.4) for 45 min at the room temperature. Fluorescence changes were read using a Fusion-alpha HT microplate reader.

T1 sequence (P43088 whole entry): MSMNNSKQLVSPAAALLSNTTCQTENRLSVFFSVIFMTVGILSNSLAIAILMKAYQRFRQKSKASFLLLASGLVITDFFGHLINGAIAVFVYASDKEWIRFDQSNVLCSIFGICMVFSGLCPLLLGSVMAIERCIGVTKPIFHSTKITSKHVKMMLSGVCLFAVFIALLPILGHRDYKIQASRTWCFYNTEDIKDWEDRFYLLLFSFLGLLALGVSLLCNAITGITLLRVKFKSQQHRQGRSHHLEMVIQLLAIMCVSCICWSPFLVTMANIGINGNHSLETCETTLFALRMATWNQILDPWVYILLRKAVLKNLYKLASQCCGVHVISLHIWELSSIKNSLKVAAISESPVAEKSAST

SMILES	Ca2+ Signal-EC50 (nM) FP [1]	Ca2+ Signal-EC50 (nM) IP [2]	EC50 [3] [nM]	EC50 ([2]; read-out: Ca2+ Signal-EC50 (nM) IP) [nM]
O=C(O)CCC/C=C\C[C@@H]1[C@@H](c2ccc(C(O)CCc3ccccc3)cc2)[C@H](O)C[C@H]1Cl (stereo partly drawn) [Entry 23, (Z)-7-{(1R,2S,3R,5R)-5-Chloro-3-hydroxy-2-[4-(1-hydroxy-3-phenyl-propyl)-phenyl]-cyclopentyl}-hept-5-enoic acid]	not active	not active	125	
CCCCCC(O)c1ccc([C@@H]2[C@@H](CCCc3ncc(C(=O)O)s3)[C@H](Cl)C[C@H]2O)cc1 (stereo partly drawn) [Entry 5, 2-(3-{(1R,2S,3R,5R)-5-Chloro-3-hydroxy-2-[4-(1-hydroxy-hexyl)-phenyl]-cyclopentyl}-propyl)-thiazole-5-carboxylic acid]	not active	not active	1060	
CCCCCC(O)c1ccc([C@@H]2[C@@H](C/C=C\CCCC(=O)O)[C@H](Cl)C[C@H]2O)cc1 (single isomer, unassigned) [Entry 12]	not active	not active	38	
CCCC1(C(O)c2cccc([C@@H]3[C@@H](Cc4cccc(CCC(=O)O)c4)[C@H](Cl)C[C@H]3O)c2)CCC1 (stereo partly drawn) [Entry 4, 3-[3-((1R,2S,3R,5R)-5-Chloro-3-hydroxy-2-{3-[hydroxy-(1-propyl-cyclobutyl)-methyl]-phenyl}-cyclopentylmethyl)-phenyl]-propionic acid]	not active	not active	69	
CCCCC(O)c1ccc([C@@H]2[C@@H](C/C=C\CCCC(=O)O)[C@H](Cl)C[C@H]2O)cc1 (mixture of isomers) [Entry 27, (Z)-7-{(1R,2S,3R,5R)-5-Chloro-3-hydroxy-2-[4-(1-hydroxy-pentyl)-phenyl]-cyclopentyl}-hept-5-enoic acid]	not active	not active	10	
CCCCC(O)C(C)(C)c1ccc([C@@H]2[C@@H](C/C=C\CCCC(=O)O)[C@H](Cl)C[C@H]2O)cc1 (mixture of isomers) [Entry 32, (Z)-7-{(1R,2S,3R,5R)-5-Chloro-3-hydroxy-2-[4-(2-hydroxy-1,1-dimethyl-hexyl)-phenyl]-cyclopentyl}-hept-5-enoic acid]	not active	not active	9	
O=C(O)CCCCCC[C@@H]1[C@@H](c2ccc(C(O)CCC3CCCCC3)cc2)[C@H](O)C[C@H]1Cl (stereo partly drawn) [Entry 16, 7-{(1R,2S,3R,5R)-5-Chloro-2-[4-(3-cyclohexyl-1-hydroxy-propyl)-phenyl]-3-hydroxy-cyclopentyl}-heptanoic acid]	not active	not active	5260	
CCCCCC(O)c1ccc([C@@H]2[C@@H](C/C=C\CCCC(=O)O)[C@H](Cl)C[C@@H]2O)cc1 (stereo partly drawn) [Entry 34, (Z)-7-{(1R,2S,3S,5R)-5-Chloro-3-hydroxy-2-[4-(1-hydroxy-hexyl)-phenyl]-cyclopentyl}-hept-5-enoic acid]	not active		5	3280
CCCCCC(O)c1ccc([C@@H]2[C@@H](C/C=C\CCCC(=O)O)[C@H](Cl)C[C@H]2O)cc1 (mixture of isomers) [Entry 11, (Z)-7-{(1R,2S,3R,5R)-5-Chloro-3-hydroxy-2-[4-(1-hydroxy-hexyl)-phenyl]-cyclopentyl}-hept-5-enoic acid]	not active	not active	3	
CCCCCC(O)C(C)(C)c1ccc([C@@H]2[C@@H](C/C=C\CCCC(=O)O)[C@H](Cl)C[C@H]2O)cc1 (stereo partly drawn) [Entry 31, (Z)-7-{(1R,2S,3R,5R)-5-Chloro-3-hydroxy-2-[4-(2-hydroxy-1,1-dimethyl-heptyl)-phenyl]-cyclopentyl}-hept-5-enoic acid]	not active	not active	19	
